Experimental data: patent US8658777B2, “Activated protease indicator” (The University of Tokyo, priority 2007, dated 2014)
*1 amine or outer side, *2 acyl side, *3 side chain or, on linkers, in order; H or OH if unused. Where a SMILES comes first, the peptide text is derived from it. Bridges are numbered along the chain shown (N, C = ends). Roman numbers before positions name the chains, in order. [ ]: non-standard residue; d: D form. The star is where a group is joined. Actinocin(9to1) = Cc1c2oc3c(C)ccc(C(=O)[*:1])c3nc-2c(C(=O)[*:2])c(N)c1=O; NMeV = CN[C@H](C(=O)O)C(C)C; Cbz = O=C(OCc1ccccc1)*; Sar = CNCC(=O)O; CH2F = FC*

Key:
caspase-3 [1] = assay: Real-time in vitro analysis of caspase-3 activity in HeLa cells expressing cyclic Fluc; assay type: cell-based
Experimental: (§1) [FIG. 9] Real-time in vitro analysis of caspase-3 activity. Forty eight hours after HeLa cells transfected with pcFluc-DEVD were treated with different concentrations of STS and then the bioluminescence intensities were measured every 5 minutes. The indicated time represents the time after the addition of each agent.
as §1, with “10] Results of the measurement with actinomycin D (ActD) in the same manner as in FIG. 9.” for “9]”, “capsase-3” for “caspase-3”, “actinomycin D (ActD)” for “STS”
pcFluc-DEVD was transfected in the HeLa cells in a 10-cm Petri dish for 24 hours. The cells were scraped off and divided in five 3-cm Petri dishes, for culturing for 24 hours. The culture medium was replaced with the Hank's balanced salt solution (Gibco) containing 500 μM D-luciferin and 5% FBS. After the five 3-cm Petri dishes were mounted on a photon counter (KRONOS, ATTO, Tokyo, Japan), the cells were stimulated with STS or actinomycin D (Act D, Sigma). The luminescence intensity in each of the Petri dishes was assayed for a cumulative time period of 45 seconds at an interval of 5 minutes.
It is known that the time required for caspase-3 activation in response to extracellular stimuli varies with the type of chemical compounds and its concentration. In order to decide upon a screening time, it is crucial to know when the activity of caspase-3 gives a maximum response after stimulation with such apoptotic chemical regents. […] First, the cyclic Fluc indicator was transiently expressed in HeLa cells; the luminescence intensity upon stimulation with STS at various concentrations was monitored every five minutes in a time course (FIG. 9). […] The rate of increase in the luminescence intensity depended on the STS concentration. […] The decrease in the luminescence signal intensity indicates attenuation of active luciferase by proteolysis in the HeLa cells.

caspase-3 [2] = assay: In vitro assay of firefly luciferase in COS-7 cells transfected with pcFluc-DEVD; assay type: cell-based
Experimental: [FIG. 5] Quantitative analysis of the Fluc activity with STS and Z-VAD-FMK. After transfection of COS-7 cells with pcFluc-DEVD for 48 hours, the cells were treated with 100 μM Z-VAD-FMK or vehicle (0.1% DMSO) for an hour and then stimulated with various concentrations of STS for two hours. A relative luminescence unit (RLU) was defined as follows: the luminescence intensity from the right side (LumR) was divided by that from the left side (LumL), as RLU (%)=LumR/LumL.
(§2) pcFluc-DEVD and pRL-TK were transfected in the COS-7 cells and the HeLa cells for 48 hours. These cells were treated with STS or a caspase inhibitor Z-VAD-FMK (Sigma) to assay the luciferase activity according to the report (Ozawa, T. et al. (2001) Anal. Chem. 73, 2516-21; Kanno, A. et al. (2006) Anal. Chem. 78, 556-60). The assay time period of Fluc and Renilla reniformis luciferase (Rluc) was 20 seconds. The luminescence from Fluc (LF) was normalized to the luminescence from Rluc (LR), and the resulting value was defined as relative luminescence unit (RLU; RLU=LF/LR). All the assays were done in various wells in a culture plate triplicately, using a luminometer of MiniLuraat LB9506 (Berthold GmbH & Co. KG, Wildbad, Germany). The results are shown as the mean ratio of the RLU value to the RLU value of cells treated with a solvent (0.1% DMSO), together with the standard deviations.
In the Example, continuously, it was examined whether the activity of the cyclic Fluc was restored after stimulation with STS. COS-7 cells transfected with pcFluc-DEVD were stimulated with STS or a caspase inhibitor Z-VAD-FMK, or with both STS and Z-VAD-FMK. The cells were harvested and their lysates were mixed with a Fluc substrate, D-luciferin. […] The luminescence signals in the presence of Z-VAD-FMK were smaller than the signals that originated from the cells in the absence of STS and Z-VAD-FMK.

caspase-3 [3] = assay: In vitro assay of firefly luciferase in HeLa cells transfected with pcFluc-DEVD; assay type: cell-based
Experimental: (§3) [FIG. 7] Quantitative analysis of the Flue activity with STS. After transfection of HeLa cells with pcFluc-DEVD for 48 hours, the cells were treated with various concentrations of STS for two hours. A relative luminescence unit (RLU) was defined as follows: the luminescence intensity from the right side (LumR) was divided by that from the left side (LumL), as RLU (%)=LumR/LumL.
as §3, with “8]” for “7]”, “Z-VAD-FMK. The” for “STS. After transfection of”, “cells were transfected” for “cells”, “hours,” for “hours, the cells were”, “treated with different concentrations of Z-VAD-FMK or vehicle (0.1% DMSO), and stimulated” for “treated”
as §2
To show the feasibility of cyclic Fluc for characterizing apoptotic regents, the sensitivity of cyclic Fluc was examined, using HeLa cells. The cells were transfected with pcFluc-DEVD, for transient expression of chimera proteins, which were stimulated with different concentrations of STS for two hours. […]

caspase-3 [4] = assay: Western blot analysis of cyclic and linear Fluc in COS-7 cells transfected with pcFluc-DEVD; assay type: cell-based; settings: indicated concentrations of STS for two hours, Western blot (FIG. 4)
Experimental: Western blot analysis of Fluc in the circular form and in the linear form. COS-7 cells transfected with pcFluc-DEVD for 48 hours were treated with the indicated concentrations of STS for two hours and harvested. The sample was electrophoresed, transferred on a nitrocellulose membrane and stained with a specific antibody.
pcFluc-DEVD was transfected in the COS-7 cells for 48 hours. The cells were stimulated with staurosporine (STS; Sigma, St. Louise, Mo.) and then disrupted in a lysis buffer (1% SDS, 10% glycerol, 10% 2-mercaptoethanol, 0.001% Bromophenol Blue, 50 mM Tris/HCl, pH 6.8). The sample was electrophoresed with 10% SDS polyacrylamide gel, which was then transferred on a nitrocellulose membrane (Hybond-ECL, GE Healthcare, Buckinghamshire, England). Fluc was detected with a polyclonal anti-luciferase antibody (Promega); the immunoreactivity was evaluated, using horseradish peroxidase (HRP) conjugated to an anti-goat IgG antibody (Promega). The HRP activity was visualized, using an ECL advance Western blotting detection kit (GE Healthcare) with LAS-1000 plus image analyzer (Fuji Film Co., Tokyo, Japan).
To assess whether the fusion protein expressed by pcFluc-DEVD produces cyclic Fluc by protein splicing, herein, pcFluc-DEVD was transfected in COS-7 cells and chimera proteins were transiently expressed for 48 hours. The spliced products were examined by Western blot (FIG. 3). […]

caspase-3 [5] = assay: Fluc activity in caspase-3-deficient MCF-7 cells transfected with pcFluc-DEVD with or without pCaspase-3; assay type: cell-based
Experimental: Analysis of the Flue activity in the caspase-3-deficient MCF-7 cells. MCF-7 cells were transfected with only pcFluc-DEVD (left) or with both pcFluc-DEVD and pCaspase-3 (right). The cells were incubated for 48 hours and the luminescence intensities were evaluated at the indicated times after stimulation with 100 nM STS. A relative luminescence unit (RLU) was defined as follows: the luminescence intensity from the right side (LumR) was divided by that from the left side (LumL), as RLU (%)=LumR/LumL.

caspase-3 [6] = assay: In vivo imaging of caspase-3 activity in living mice implanted with HeLa cells expressing cyclic Fluc; set-up: species or system BALB/c-nude mouse
Text: [FIG. 11] In vivo luminescence assay of mice carrying transiently transfected HeLa cells. The mice were subcutaneously implanted with HeLa cells expressing cyclic Fluc (right side) and full-length Fluc (left side). Images of the mice were taken at the indicated times after intraperitoneal injection of STS. A representative of three mice is shown.
[FIG. 12] Time-dependent changes in the photon count from the implanted site in FIG. 11. The relative luminescence unit (RLU) is shown on the longitudinal axis, where RLU=LumR/LumL provided that luminescence intensity from the right side (LumR) is divided with the luminescence intensity from the left side (LumL), as shown in (A). A relative luminescence unit (RLU) was defined as follows: the luminescence intensity from the right side (LumR) was divided by that from the left side (LumL), as RLU (%)=LumR/LumL.
pX8luc or pcFluc-DEVD was transfected in HeLa cells for 48 hours. The cells were harvested and suspended in a phosphate buffered saline (PBS), from which 1.0×10^6 cells were transplanted in two different dorsal positions of a BALB/c-nude mouse (female, five-week-old, body weight of about 17 to 20 g). After the cell transplantation, STS dissolved in DMSO was intraperitoneally injected. Immediately thereafter, a PBS buffer containing D-luciferin (600 mg/kg body weight) was intraperitoneally injected, to assay the luminescence from the mouse, using a CCD camera (IVIS200 system, Xenogen, Alameda, Calif.). Photons emitted from the transplanted cells were counted and cumulatively recorded over one minute. Image analysis was done, using the software LIVING IMAGE (Xenogen). So as to quantitatively determine the assayed luminescence, a region of interest was extracted from the cell-transplanted regions, to evaluate the luminescence intensity (photon·second^−1·cm^−2). […]
To quantitatively evaluate the effect of STS on caspase-3 activity, a relative luminescence unit (RLU) was defined as follows; the luminescence intensity from the right side (LumR) was divided by that from the left side (LumL), as RLU (%)=LumR/LumL. […]

[7] = STS 100 μg/kg of body weight i.p.

Cc1c2oc3c(C)ccc(C(=O)N[C@@H]4C(=O)N[C@H](C(C)C)C(=O)N5CCC[C@H]5C(=O)N(C)CC(=O)N(C)[C@@H](C(C)C)C(=O)O[C@@H]4C)c3nc-2c(C(=O)N[C@@H]2C(=O)N[C@H](C(C)C)C(=O)N3CCC[C@H]3C(=O)N(C)CC(=O)N(C)[C@@H](C(C)C)C(=O)O[C@@H]2C)c(N)c1=O [ActD, actinomycin D] (I: T[dV]P[Sar][NMeV] / II: T[dV]P[Sar][NMeV]; ester I:1-I:C, II:1-II:C; linker I:N-II:N via Actinocin(9to1))
time period over which the luminescence signal intensity increased (caspase-3 [1]; ActD, then gradually decreased (FIG. 10)): 25 to 120 min

COC(=O)C[C@H](NC(=O)[C@H](C)NC(=O)[C@@H](NC(=O)OCc1ccccc1)C(C)C)C(=O)CF [Z-VAD-FMK] (Cbz-Val-Ala-Asp(OMe)-CH2F)
luminescence signal relative to signals from vehicle-treated cells (caspase-3 [2]; COS-7 cells treated with 100 μM Z-VAD-FMK (FIG. 5)): 50%
luminescence (caspase-3 [2]; COS-7 cells, 100 μM Z-VAD-FMK, in the presence or absence of 1 μM STS): no increase in luminescence
basal caspase-3 activities (caspase-3 [2]; COS-7 cells, 100 μM Z-VAD-FMK, no STS): completely inhibited
concentrations at which inhibitory effect on the cleavage of the cyclic Fluc was observed (caspase-3 [3]; HeLa cells stimulated with STS for two hours (FIG. 8)): higher than 10 μM
cleavage of the cyclic Fluc (caspase-3 [3]; HeLa cells, 100 μM Z-VAD-FMK, STS stimulation): completely suppressed

CN[C@@H]1C[C@H]2O[C@@](C)([C@@H]1OC)n1c3ccccc3c3c4c(c5c6ccccc6n2c5c31)C(=O)NC4 [STS, staurosporine]
Formation of the linear form of Fluc (caspase-3 [4]): dependent on the concentration of STS
luminescence signals (caspase-3 [2]; COS-7 cells, various concentrations of STS for two hours (FIG. 5)): increased with increase in concentrations of the STS
luminescence from the cells (caspase-3 [5]; MCF-7 cells cotransfected with pcFluc-DEVD and pCaspase-3, stimulation with STS): significantly increased
change in the bioluminescence intensity (caspase-3 [5]; MCF-7 cells transfected with pcFluc-DEVD only, 1 μM STS for two hours): little change
concentration range inducing an increase in the bioluminescence intensity (caspase-3 [3]; HeLa cells, STS for two hours (FIG. 7)): 10 to 1000 nM
time at which luminescence signals reach a maximum after stimulation (caspase-3 [1]; STS at various concentrations (FIG. 9)): 100 min
duration of initial slow increase in the luminescence signals (caspase-3 [1]; STS at various concentrations, measured every five minutes (FIG. 9)): 25 min
luminescence signal from the left side (HeLa cells expressing full-length Fluc, control) (caspase-3 [6]; [7]): no significant change
luminescence signal intensity from the right side (implanted cyclic Fluc cells) (caspase-3 [6]; [7]): significant increase
maximum RLU ratio in comparison to the RLU before STS stimulation (caspase-3 [6]; two hours after the intraperitoneal STS injection, RLU=LumR/LumL (FIG. 12)): 300 to 400%
